Literature values as cited in patent US9572848B1, “Composition of matter for sexual dysfunction” (Aemes Research L.L.L.P., priority 2014, dated 2017).

Assays:
[1] = system: blood pressure; conditions: meta-analysis
[2] = system: growth hormone (GH) levels; conditions: oral arginine, 9-gram dose; placebo 2.9 (+/−0.7)

## N=C(N)NCCC[C@H](N)C(=O)O [L-arginine]
[1]
  Reduction of DBP, pooled estimate: 2.7 mmHg
  Reduction of SBP, pooled estimate: 5.4 mmHg
[2]
  Mean peak GH level: 6.4 (+/−1.3) μg/L
